This note sets out measurements from patent US8536158B2, “Compounds having CRTH2 antagonist activity” (Atopix Therapeutics Limited, priority 2008, dated 2013).

Data set [1] is described as follows: In vivo pharmacokinetic profile in the dog. The conditions noted are these: plasma.
Data set [2] in a line: Microsomal stability. It is filed as in vitro ADME, human. As to conditions: for Mean Parent remaining (%): 1 x 10^-6 M test compound, human liver microsomes 0.3 mg/ml, mean of two experiments; for unmetabolised in human liver microsomes: text states. Here is the method: The percentage of the test compound remaining in the sample after 1 hour was measured in order to determine the rate of metabolism of test compound. The results are shown in Table 3, which gives the results for two experiments and the mean value obtained.

Data set [3] relates to eosinophils in human whole blood. As to the kind of experiment: Human whole blood eosinophil shape change assay (PGD2-induced). As to conditions: for IC50: Eosinophil, 10 nM PGD2, human whole blood, read-out: IC50 for effect on 10 nM PGD2-induced eosinophil shape change in human whole blood. It is filed as cell-based. Here is the method: Compounds 1-3 were assayed for their effect on PGD2 induced eosinophil shape change and were compared with Comparator Compounds A, B and D.
Compounds (1 μl, 200× final concentration) were added directly to 200 μl whole blood, mixed well and incubated for 15 min, 37° C., 5% CO2. After this time, cell shape was fixed by addition of 300 μl Cytofix™ buffer (BD Biosciences), 15 min on ice. 10 ml RBC lysis buffer was added to the fixed cells, incubated 5 min, at room temperature and centrifuged, 300×g for 5 min. Supernatant (containing lysed red cells) was removed and the lysis step was repeated. Leukocytes were resuspended in 250 μl RPMI/10% FCS and shape change analysed by FACS. Eosinophils were gated out based on their autofluorescence and 2000 eosinophil events were counted per sample. Data were analysed in triplicate.

The target in data set [4] is CRTH2 receptor (Homo sapiens (Human), UniProt Q9Y5Y4). The data set is described as follows: [3H]PGD2 radioligand binding assay on CHO/CRTH2 cell membranes. The conditions noted are these: for Ki: [3H]PGD2, CHO/CRTH2 membranes. The method, then: Chinese Hamster Ovary cells were transfected with CRTH2 or DP receptors (CHO/CRTH2 and CHO/DP) and were maintained in culture in a humidified atmosphere at 37° C. (5% CO2) in Minimum Essential Medium (MEM) supplemented with 10% foetal bovine serum, 2 mM glutamine, and 1 mg ml^−1 active G418. The cells were passaged every 2-3 days. For radioligand binding assay, cells were prepared in triple-layer flasks or in 175 cm^2 square flasks (for membrane preparation).
Membranes were prepared either from CHO/CRTH2 and CHO/DP cells, or from platelets (as a source of TP receptors). CHO cells grown to confluency were washed with PBS and detached using a Versene solution (15 ml per flask). When the cells were grown in 175 cm^2 square flask, they were collected by scrapping in PBS. The cell suspensions were centrifuged (1,700 rpm, 10 min, 4° C.) and resuspended in 15 ml of buffer (1×HBSS, supplemented with 10 mM HEPES, pH 7.3). Cell suspensions were then homogenised using an Ultra Turrax at setting 4-6 for 20 s. The homogenate was centrifuged at 1,700 rpm for 10 min and the supernatant was collected and centrifuged at 20,000 rpm for 1 h at 4° C. The resulting pellet was resuspended in buffer and stored at −80° C. in aliquots of […] The protein concentration was determined by the method of Bradford (1976), using bovine serum albumin as standard. The platelets were washed by centrifugation at 600×g for 10 min and resuspended in ice-cold assay buffer (10 mM Tris-HCl, pH 7.4, 5 mM Glucose, 120 mM NaCl, 10 μM indomethacin) and directly centrifuged at 20,000 rpm for 30 min at 4° C. The resulting pellet was treated as described above.
[^3H]PGD2 (160 Ci/mmol) binding experiments were performed on membranes prepared as described above. Assays were performed in a final volume of 100 μl of buffer (1×HBSS/HEPES 10 mM, pH 7.3). Cell membranes (15 μg) were preincubated at room temperature with varying concentration of competing ligand for 15 min. [^3H]PGD2 was then added and the incubation continued for a further one hour at room temperature. The reaction was terminated by the addition of 200 μl ice-cold assay buffer to each well, followed by rapid filtration through Whatman GF/B glass fibre filters using a Unifilter Cell harvester (PerkinElmer Life Sciences) and six washes of 300 μl of ice-cold buffer. The Unifilter plates were dried at room temperature for at least 1 h and the radioactivity retained on the filters was determined on a Beta Trilux counter (PerkinElmer Life Sciences), following addition of 40 μl of Optiphase Hi-Safe 3 (Wallac) liquid scintillation. Non specific binding was defined in the presence of 10 μM unlabelled PGD2. Assays were performed in duplicate.

CRTH2 receptor, sequence (Q9Y5Y4 whole entry): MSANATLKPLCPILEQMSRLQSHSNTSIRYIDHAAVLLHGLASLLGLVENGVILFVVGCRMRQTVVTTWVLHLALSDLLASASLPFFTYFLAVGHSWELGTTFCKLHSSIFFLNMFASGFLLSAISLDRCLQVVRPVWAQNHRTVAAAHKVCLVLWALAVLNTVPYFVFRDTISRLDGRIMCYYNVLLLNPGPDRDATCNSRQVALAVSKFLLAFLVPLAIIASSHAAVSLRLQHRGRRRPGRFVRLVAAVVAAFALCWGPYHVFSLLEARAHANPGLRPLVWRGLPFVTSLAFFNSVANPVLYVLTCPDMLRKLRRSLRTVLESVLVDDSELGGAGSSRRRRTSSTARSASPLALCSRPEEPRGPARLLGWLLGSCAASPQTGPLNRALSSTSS

With `Cc1c(Cc2cccnc2S(=O)(=O)c2ccccc2)c2cc(F)ccc2n1CC(=O)O` [Compound 1, (3-{[2-(Benzenesulfonyl)pyridin-3-yl]methyl}-5-fluoro-2-methylindol-1-yl)-acetic acid], in data set [1] (oral), the half-life is 3 h. In addition, in data set [2], the “Mean Parent remaining (%)” value came to 96% and the “unmetabolised in human liver microsomes” value turned out to be 96%. The IC50 in data set [3] came out at 9 nM. For the same molecule, in data set [4], the Ki worked out at 2 nM.
Molecule `Cc1c(Cc2cccnc2S(=O)(=O)c2ccc(F)cc2)c2cc(F)ccc2n1CC(=O)O` [Compound 2, [5-Fluoro-3-({2-[(4-fluorobenzene)sulfonyl]pyridin-3-yl}methyl)-2-methylindol-1-yl]-acetic acid] had a half-life in data set [1] of 5 h. Also, in data set [2], the “Mean Parent remaining (%)” value is 98% and the “unmetabolised in human liver microsomes” value was found to be 98%. Further, in data set [3], the IC50 is 2.5 nM.
Consider `Cc1c(Cc2cccnc2S(=O)(=O)c2ccc(Cl)cc2)c2cc(F)ccc2n1CC(=O)O` [Compound 3, [3-({2-[(4-Chlorobenzene)sulfonyl]pyridin-3-yl}methyl)-5-fluoro-2-methylindol-1-yl]-acetic acid], for which the IC50 in data set [3] was found to be 10 nM.
`Cc1c(Cc2ccc(S(C)(=O)=O)cc2)c2cc(F)ccc2n1CC(=O)O` [Compound A, [3-(4-Methylsulfonyl-benzyl)-5-fluoro-2-methyl-indol-1-yl]-acetic acid]: the half-life in data set [1] (oral) was 1 h. Also, in data set [3], the IC50 was found to be 8 nM. Also, in data set [4], the affinity corresponds to a Ki of 7 nM.
For the molecule `Cc1c(Cc2ccncc2S(=O)(=O)c2ccccc2)c2cc(F)ccc2n1CC(=O)O` [Compound B, [3-(3-Benzenesulfonyl-pyridin-4ylmethyl)-5-fluoro-2-methyl-indol-1-yl]-acetic acid], in data set [2], the “Mean Parent remaining (%)” value was 69% and the “unmetabolised in human liver microsomes” value was found to be 69%. In data set [3], the IC50 is 34 nM. The “CRTH2 antagonist potency under physiological conditions (in words)” value in data set [3] (eosinophil shape change test, whole blood) is “not a particularly potent CRTH2 antagonist”. In data set [4], this molecule had a Ki of 1 nM.
On to `Cc1c(Cc2ncccc2S(=O)(=O)c2ccccc2)c2cc(F)ccc2n1CC(=O)O` [Compound C, [3-(3-Benzenesulfonyl-pyridin-2-ylmethyl)-5-fluoro-2-methyl-indol-1-yl]-acetic acid], for which, in data set [2], the “Mean Parent remaining (%)” value is 90% and the “unmetabolised in human liver microsomes” value is on record as 90%. In data set [4], the “binding to the CRTH2 receptor (in words)” value is “bind only very weakly” and the Ki was 979 nM.
On to `Cc1c(Cc2cccn2S(=O)(=O)c2ccccc2)c2cc(F)ccc2n1CC(=O)O` [Compound D, [3-(1-Benzenesulfonyl-1H-pyrrol-2-ylmethyl)-5-fluoro-2-methyl-indol-1-yl]-acetic acid], for which, in data set [2], the “Mean Parent remaining (%)” value is given as 24% and the “unmetabolised in human liver microsomes” value is 24%. The “stability in human microsomes (in words)” value in data set [2] (human microsomes) is “low stability”. In addition, the IC50 in data set [3] is 8 nM.
As to `Cc1c(Cc2cccnc2)c2cc(F)ccc2n1CC(=O)O` [Compound E], in data set [4], the “binding to the CRTH2 receptor (in words)” value is “bind only very weakly” and the Ki was found to be 258 nM.

Usually half-life stands for the time needed for the level to fall by half in the phase considered. Read a high half-life as slow loss. For orientation: IC50 means the point on the concentration scale where inhibition reaches its midpoint. Broadly, the Ki is the equilibrium dissociation constant of an inhibitor or competing ligand from its target.
